Where a SMILES comes first, the peptide text is derived from it. [ ]: non-standard residue; d: D form. Aib = CC(C)(N)C(=O)O
How the values were obtained:
[1] = target: T1, human GLP-1R (Homo sapiens, UniProt P43220); assay: Agonist activity assay for GLP-1R (cAMP HTRF); format: cell-based
T1 construct: expressed in transfected cells
Protocol: (§1) The activation of GCGR by related compounds will stimulate the formation of cyclic adenosine monophosphate (cAMP) in cells. Thus, the receptor activity can be monitored by cAMP production in proper cells expressing the receptor.
(§2) Agonist activity assay for GCGR: Cryopreserved stable CHO-K1/GCGR/CRE-Luc cells were taken from a liquid nitrogen tank, thawed in a 37° C. water bath, resuspended in DMEM/F12 medium (Sigma Cat #D8437), centrifuged, and seeded into T75 culture flasks. The cells were passaged at least once for subsequent tests. Before testing, the cells were trypsinized, centrifuged, washed once, and resuspended in serum-free DMEM/F12 medium. The cell density was adjusted, and the cells were plated in a 96-well plate at a density of 2,500 cells/5 μL/well. A 1×buffer solution in Cisbio-cAMP-Gs Dynamic kit was prepared, and IBMX was added at a final concentration of 0.5 mM. 5 μL of polypeptide serially diluted by buffer was added into each well, and the plate was shaken gently for mixing and incubated for 30 minutes at 37° C. cAMP-d2 and Anti-cAMP-Eu^3+-Cryptate were 20-fold diluted with cAMP Lysis and detection buffer respectively and mixed well. 5 μL of diluted cAMP-d2 solution and 5 μL of diluted Anti-cAMP-Eu^3+-Cryptate solution were sequentially added into each well. The mixture was mixed well by moderate vibration, and incubated for 1 hour at room temperature away from light.
Agonist activity assay for GLP-1R: The method differed from the method described above for the agonist activity assay for GCGR in that a stable CHO-GLP-1R cell line was used.

[2] = target: T2, human glucagon receptor (GCGR) (Homo sapiens, UniProt P47871); assay: Agonist activity assay for GCGR (cAMP HTRF); format: cell-based; conditions: normalized by the activity of the native glucagon
T2 construct: expressed in transfected cells
T2 sequence (P47871 26-477): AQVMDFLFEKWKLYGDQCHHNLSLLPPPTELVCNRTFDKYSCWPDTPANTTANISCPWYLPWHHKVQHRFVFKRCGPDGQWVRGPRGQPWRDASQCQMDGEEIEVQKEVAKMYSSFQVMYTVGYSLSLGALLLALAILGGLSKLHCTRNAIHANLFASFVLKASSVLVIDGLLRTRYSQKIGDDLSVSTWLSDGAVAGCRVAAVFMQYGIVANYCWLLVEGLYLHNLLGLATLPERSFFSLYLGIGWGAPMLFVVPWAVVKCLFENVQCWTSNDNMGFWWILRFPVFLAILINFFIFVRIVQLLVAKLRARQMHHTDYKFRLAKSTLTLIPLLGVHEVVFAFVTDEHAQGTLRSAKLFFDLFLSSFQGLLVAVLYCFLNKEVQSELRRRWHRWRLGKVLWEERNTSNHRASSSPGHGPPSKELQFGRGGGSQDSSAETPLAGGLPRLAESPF
Protocol: The activation of GCGR by related compounds will stimulate the formation of cyclic adenosine monophosphate (cAMP) in cells. Thus, the receptor activity can be monitored by cAMP production in proper cells expressing the receptor. […] The cells were passaged at least once for subsequent tests. Before testing, the cells were trypsinized, centrifuged, washed once, and resuspended in serum-free DMEM/F12 medium. The cell density was adjusted, and the cells were plated in a 96-well plate at a density of 2,500 cells/5 μL/well. […] The mixture was mixed well by moderate vibration, and incubated for 1 hour at room temperature away from light.

[3] = Maximum solubility in phosphate buffer pH 7.4; format: physicochemical; conditions: phosphate buffer pH 7.4, room temperature
[4] = target: T3, human GIPR (Homo sapiens, UniProt P48546); assay: Agonist activity assay for GIPR (cAMP HTRF); format: cell-based
T3 construct: expressed in transfected cells
T3 sequence (P48546 22-466): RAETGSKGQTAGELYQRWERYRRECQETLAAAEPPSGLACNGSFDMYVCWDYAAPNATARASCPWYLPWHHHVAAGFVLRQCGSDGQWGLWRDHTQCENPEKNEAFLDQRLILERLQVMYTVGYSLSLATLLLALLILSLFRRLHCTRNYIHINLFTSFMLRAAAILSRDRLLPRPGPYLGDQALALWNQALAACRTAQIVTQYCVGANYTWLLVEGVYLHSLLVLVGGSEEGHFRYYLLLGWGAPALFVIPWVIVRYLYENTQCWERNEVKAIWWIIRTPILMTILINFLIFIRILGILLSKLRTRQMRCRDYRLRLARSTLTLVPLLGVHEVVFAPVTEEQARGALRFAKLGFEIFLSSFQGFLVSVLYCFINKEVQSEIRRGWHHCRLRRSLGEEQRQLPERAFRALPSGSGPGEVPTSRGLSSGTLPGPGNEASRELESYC
Protocol: as §1, §2
Agonist activity assay for GIPR: The method differed from the method described above for the agonist activity assay for GCGR in that a stable CHO-K1/GIPR cell line was used, and the cell density was 3,000 cells/5 μL/well.

[5] = Pharmacokinetics in rats after subcutaneous injection; format: in vivo, SD rats; conditions: plasma
Protocol: (1) Animals were grouped according to Table 12, and were given free access to water and food before administration.
• Sampling time: 0 min pre-dose, and 2 min, 4 min, 7 min, 10 min, 20 min, 40 min, 1 h and 2 h post-dose. Blood was collected from rats by jugular catheterization.
• 1) 0.2 mL of whole blood was collected at each time point into a centrifuge tube containing EDTA-K2; • 2) The blood samples were centrifuged at 4000 g at 4° C. for 5 min, and separated to give the plasma; • 3) The plasma samples were cryopreserved at −80° C.
The mixture was vortexed for 5 min and centrifuged at a low temperature for 10 min. 100 μL of the supernatant was taken and added to 100 μL of 0.1% formic acid aqueous solution. The mixture was mixed well, and loaded on the instrument for analysis; • Liquid chromatography and mass spectrometry analysis: LC-30A liquid chromatography system (Shimadzu, Japan) and API 5500 liquid chromatography-triple quadrupole mass spectrometer (Analyst Software data processing system, AB Sciex, USA) were used. The chromatographic column was nanomicro Unisil C18aq (4.6 mm×150 mm, 5 μm) chromatographic column; the column temperature was 40° C.; the mobile phase A was 0.1% formic acid aqueous solution, and the mobile phase B was 0.1% formic acid in acetonitrile; the flow rate was 0.5 mL/min; the injection volume was 20 μL; the gradient is shown in Table 13 below. The mass spectrum was obtained using an electrospray ionization (ESI) source, a positive ion analysis mode and a multi reaction monitoring (MRM) scanning mode.
The plasma concentration of the test compounds was measured by HPLC-MS/MS. The plasma concentration-time curve was plotted, and the pharmacokinetic parameters were calculated by PKSolver.

[6] = test system: human liver microsomes; assay: Stability in human liver microsome incubation system
[7] = Chemical stability in phosphate buffer (UPLC purity); format: physicochemical; conditions: phosphate buffer pH 7.4, 1 mg/mL
[8] = in vitro; conditions: human
[9] = test system: rat erythrocyte suspension; assay: Hemolysis assay; conditions: for Hemolysis rate: 37° C., 1 hour
[10] = test system: insulin-induced hypoglycemia rat model; assay: Efficacy in insulin-induced hypoglycemic rat model; format: in vivo, SD rats; conditions: insulin 0.65 IU/kg at T0; 12 nmol/kg subcutaneous at 45 min
[11] = test system: human kidney microsomes; assay: Stability in human kidney microsome incubation system
[12] = in vitro; conditions: human; remark: listed apart in the source
[13] = test system: normal rats (blood glucose); assay: Efficacy in normoglycemic rat model; format: in vivo, SD rats; conditions: normal rats, 2 nmol/kg subcutaneous single dose

T1 sequence (P43220 24-463): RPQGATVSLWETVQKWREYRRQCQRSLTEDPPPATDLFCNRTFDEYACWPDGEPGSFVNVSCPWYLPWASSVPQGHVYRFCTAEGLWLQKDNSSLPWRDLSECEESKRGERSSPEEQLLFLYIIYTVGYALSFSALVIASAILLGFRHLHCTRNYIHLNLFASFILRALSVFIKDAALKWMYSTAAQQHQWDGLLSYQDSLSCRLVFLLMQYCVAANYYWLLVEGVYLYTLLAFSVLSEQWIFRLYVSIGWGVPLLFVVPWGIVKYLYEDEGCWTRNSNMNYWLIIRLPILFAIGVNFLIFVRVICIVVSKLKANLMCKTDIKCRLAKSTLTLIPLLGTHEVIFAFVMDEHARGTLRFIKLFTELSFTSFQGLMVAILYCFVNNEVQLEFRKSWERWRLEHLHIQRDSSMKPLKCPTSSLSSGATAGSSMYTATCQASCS

## CC[C@H](C)[C@H](NC(=O)[C@H](CC(=O)O)NC(=O)[C@H](CC(C)C)NC(=O)[C@H](Cc1ccc(O)cc1)NC(=O)[C@H](CCCCN)NC(=O)[C@H](CO)NC(=O)[C@H](Cc1ccc(O)cc1)NC(=O)[C@H](CC(=O)O)NC(=O)[C@H](CO)NC(=O)[C@@H](NC(=O)[C@H](Cc1ccccc1)NC(=O)[C@@H](NC(=O)CNC(=O)[C@H](CCC(N)=O)NC(=O)[C@H](CO)NC(=O)[C@@H](N)Cc1c[nH]cn1)[C@@H](C)O)[C@@H](C)O)C(=O)NC(C)(C)C(=O)N[C@@H](CCCNC(=N)N)C(=O)N[C@@H](C)C(=O)N[C@@H](CCC(N)=O)C(=O)N[C@@H](CCC(=O)O)C(=O)N[C@@H](Cc1ccccc1)C(=O)N[C@H](C(=O)N[C@@H](CCC(N)=O)C(=O)N[C@@H](Cc1c[nH]c2ccccc12)C(=O)N[C@@H](CC(C)C)C(=O)N[C@@H](CCC(=O)O)C(=O)N[C@@H](CO)C(=O)N[C@H](C(=O)O)[C@@H](C)O)C(C)C [Compound 42] (H-HSQGTFTSDYSKYLDI[Aib]RAQEFVQWLEST-OH)
[1]
  GLP-1R % Activity relative to native GLP-1: 0.291%
[2]
  Relative activity: 207%
[3]
  solubility at 5 min: > 2490 µg/mL
[4]; CHO-K1/GIPR cell line, cAMP
  EC50: > 100 nM
[4]; relative to native GIP
  GIPR % Activity relative to native GIP: <0.0700%

## CC(C)C[C@H](NC(=O)[C@H](Cc1c[nH]c2ccccc12)NC(=O)[C@H](CCCCN)NC(=O)[C@@H](NC(=O)[C@H](Cc1ccccc1)NC(=O)[C@H](CCC(=O)O)NC(=O)[C@H](CCC(=O)O)NC(=O)[C@H](C)NC(=O)[C@H](CCCNC(=N)N)NC(=O)[C@H](C)NC(=O)C(C)(C)NC(=O)[C@H](CC(=O)O)NC(=O)[C@H](CC(C)C)NC(=O)[C@H](Cc1ccc(O)cc1)NC(=O)[C@H](CCCCN)NC(=O)[C@H](CO)NC(=O)[C@H](Cc1ccc(O)cc1)NC(=O)[C@H](CC(=O)O)NC(=O)[C@H](CO)NC(=O)[C@@H](NC(=O)[C@H](Cc1ccccc1)NC(=O)[C@@H](NC(=O)CNC(=O)[C@H](CCC(N)=O)NC(=O)[C@H](CO)NC(=O)[C@@H](N)Cc1c[nH]cn1)[C@@H](C)O)[C@@H](C)O)C(C)C)C(=O)N[C@@H](CCC(=O)O)C(=O)N[C@@H](CO)C(=O)N[C@H](C(=O)O)[C@@H](C)O [Dasiglucagon, reference compound]
[5]; male SD rats, single SC injection, Dasiglucagon 5 mg/kg, 40 5.06 mg/kg
  AUClast/D: 260 h·ng/mL per mg/kg
[5]; male, SD, rat, sc
  Tmax: 10 min
[5]; male, SD, rat, sc, male SD rats, single SC injection, Dasiglucagon 5 mg/kg, 40 5.06 mg/kg
  half-life: 30.6 min
[5]; male, SD, rat, sc, read-out: Bioavailability (F %)
  bioavailability: 84.6%
[6]; With NADPH
  Percentage residues 0 min: 100.0%
[6]; Without NADPH
  Percentage residues 0 min: 100.0%
  Percentage residues 15 min: 91.65%
  Percentage residues 30 min: 88.78%
  Percentage residues 60 min: 71.74%
  Percentage residues 120 min: 53.48%
[6]; Without NADPH, 1 μM
  T½: 125.37 min
[7]; 4° C.
  Purity Day 7: 98.66%
  Purity Day 14: 98.84%
  Purity Day 21: 99.85%
  Purity Day 28: 99.68%
[7]; 25° C.
  Purity Day 7: 98.07%
  Purity Day 14: 96.73%
  Purity Day 21: 96.68%
  Purity Day 28: 96.81%
[7]; day 0 (normalization)
  Purity Day 0: 100.00%
[8]; human liver microsomes
  remaining at 0.25 h, 1 μM: 91.8%
  remaining at 0.5 h, 1 μM: 91.6%
  remaining at 1 h, 1 μM: 81.1%
  remaining at 2 h, 1 μM: 59.2%
[8]; liver microsomes
  half-life at 1 μM: 162 min
[9]; 1 μg/mL
  Hemolysis rate: −4.69%
[9]; 3 μg/mL
  Hemolysis rate: −4.77%
[9]; 10 μg/mL
  Hemolysis rate: −4.05%
[9]; 30 μg/mL
  Hemolysis rate: −5.23%
[9]; 100 μg/mL
  Hemolysis rate: −5.52%
[9]; 300 μg/mL
  Hemolysis rate: −4.63%
[9]; concentrations ranging from 1 to 300 μg/mL
  Hemolysis risk (in words): no significant risk of the hemolysis adverse effect was found
[10]
  Blood glucose 60 min: 7.00 mmol/L
  Blood glucose 75 min: 9.52 mmol/L
  Blood glucose 90 min: 8.43 mmol/L
  Blood glucose 105 min: 7.47 mmol/L
[11]; With NADPH
  Percentage residues 0 min: 100.0%
[11]; Without NADPH
  Percentage residues 0 min: 100.0%
  Percentage residues 15 min: 73.24%
  Percentage residues 30 min: 55.17%
  Percentage residues 60 min: 33.12%
  Percentage residues 120 min: 19.74%
[11]; Without NADPH, 1 μM
  T½: 51.98 min
[12]; human kidney microsomes
  remaining at 0.25 h, 1 μM: 63.5%
  remaining at 0.5 h, 1 μM: 52.9%
  remaining at 1 h, 1 μM: 36.6%
  remaining at 2 h, 1 μM: 17.7%
[12]; kidney microsomes
  half-life at 1 μM: 51.3 min
[13]
  Blood glucose 15 min: 9.32 mmol/L
  Blood glucose 30 min: 7.73 mmol/L
  Blood glucose 45 min: 6.87 mmol/L
  Blood glucose 60 min: 6.08 mmol/L
[3]
  solubility at 5 min: > 3750 µg/mL

Reference: patent US20240279298A1 (BEIJING TUO JIE BIOPHARMACEUTICAL CO. LTD., priority 2021, published 2024)
